Source: US11970462B1, “Ethyl 3-[4,4-bis(4-chlorophenyl)-2,5-dioxoimidazolidin-1-yl]propanoate as an antimicrobial compound” (KING FAISAL UNIVERSITY, priority 2024, dated 2024)

Assays:
Assay type in all cases: cell-based
Settings in all cases: after 10, 20, 40 and 60 minutes at all dilutions 1:100, 1:200, 1:400, 1:800
Staphylococcus aereus = test: Antimicrobial testing by agar dilution, St. Aereus
Procedure: (§1) The antimicrobial properties of the ethyl 3-[4,4-bis(4-chlorophenyl)-2,5-dioxoimidazolidin-1-yl]propanoate were studied by the method of agar dilution. Test solutions of each compound was prepared in concentration of 1% using dimethylformamide as a solvent then they are diluted in physiological solution to obtain the final experimental dilutions 1:100, 1:200, 1:400, 1:800. The effect of these substances are compared with furacillin in a controlable study. The testing microbes used were gram positive bacteria Staphylococcus aereus, gram negative bacteria Escherichia Coli, Pseudomonas aeruginosa and Candida albicans fungi were taken. The experiments used for this survey were meat-pentonlu agar (EPA) for cultivation of bacteria and Saburo environment for fungi. Each experiment used 1 ml of test solution on each plate 500 min. Add 2 drops of emulsified with microbes feel. All experimental samples were taken from the agar after 10, 20, 40, 60 minutes in the environment on the basis of Patrk planted. Bacteria were cultivated at a temperature of 37° C. for 1 day and the mushroom was kept in a thermostat for 2 hours at a temperature of 28° C. in the. Then results were checked.

Candida albicans = test: Antimicrobial testing by agar dilution, Candida albicans
Procedure: as §1

Pseudomonas aeruginosa = test: Antimicrobial testing by agar dilution, Ps. aeruginosa
Procedure: as §1

Escherichia Coli = test: Antimicrobial testing by agar dilution, E. Coli
Procedure: as §1

CCOC(=O)CCN1C(=O)NC(c2ccc(Cl)cc2)(c2ccc(Cl)cc2)C1=O [ethyl 3-[4,4-bis(4-chlorophenyl)-2,5-dioxoimidazolidin-1-yl]propanoate]
higher inhibition activity: inhibition activity (in words), Staphylococcus aereus (Staphylococcus aereus) | inhibition activity (in words), Candida albicans (Candida albicans) | inhibition activity (in words), Pseudomonas aeruginosa (Pseudomonas aeruginosa) | inhibition activity (in words), Escherichia Coli (Escherichia Coli)
